For data set [1] the following is noted: background values, cited from earlier work.
For data set [2] the following is noted: J. Voorspoels et al., The Veterinary Record (October 1999); cited from earlier work.
A short description of data set [3]: Equilibrium solubility of itraconazole in FaSSIF. Format: physicochemical. Conditions: thermodynamic from solid; FaSSIF pH 6.5, 37° C., equilibration up to one week.
For data set [4] the following is noted: male, Wistar, rat, in vivo.
Protocol: Male Wistar rats of about 350 g were anaesthetized with a ketamin (Anesketin, commercially available from Eurovet, Heusden, Belgium)—xylazin (Xyl-M 2%, commercially available from VMD, Arendonk, Belgium) mixture (87.5 and 8.75 mg/kg respectively). The left jugular vein was cannulated with a heparinized (50 IU·mL^−1) polyethylene cannula (1.02 mm outer diameter; commercially available from Portex, Kent, United Kingdom) for blood supply from a donor rat during the perfusion experiment. A laparotomy was performed and the small intestine was exposed. A segment of the ileum (4-10 cm) was isolated by inserting two glass cannulas (4 mm o.d., 3 mm i.d.) at the proximal and distal end of the segment. Polyethylene tubing (6.5 mm o.d., 3.1 mm i.d.) was connected to the inlet cannula. The intestinal content was removed by perfusing the segment with pre-warmed TM (38° C.) at a flow rate of 3 mL/min. The perfusion pump (Minipuls3, commercially available from Gilson, Middleton, USA) was placed between the reservoir and the inlet cannula. After pre-incubation of the intestine with TM, the mesenteric vein draining the isolated part of the ileum was cannulated using the top end (1 cm) of a catheter (Insyte-W® 0.7×19 mm, commercially available from Beckton Dickinson, Salt Lake City, Utah). […]
Plasma concentrations of itraconazole were determined by HPLC as follows. […]
The test system of data set [5] is Caco-2 cell monolayer. As to the kind of experiment: Caco-2 cell monolayer transport. Format: in vitro ADME. The method, then: As receiver medium for Caco-2 transport experiments, 0.2 wt.-% TPGS (D-α-tocopherol polyethylene glycol 1000 succinate, commercially available from Eastman, Anglesey, England) in transport medium (hereinafter referred to as TM) [HBSS Hanks' Balanced Salt Solution supplemented with glucose to obtain a final concentration of 25 mM, commercially available from Sigma-Aldrich, Steinheim, Germany and Hepes-buffer (10 mM, pH 7.4, N-2-hydroxyethylpiperazine-N′-2-ethanesulfonic acid, commercially available from Lonza, Verviers, Belgium)] was used. To maintain sink conditions, TPGS was included in the medium added to the basolateral side of the Caco-2 cell monolayer.
Caco-2 cells were purchased from Cambrex Biosciences, Walkersville, Md., United States of America. Caco-2 cells were grown in 75 cm^2 culture flasks at 37° C. in an atmosphere of 5% CO2 and 90% relative humidity. Cells were passaged every 3-4 days (at 70-80% confluence) at a split ratio of 1 to 7. Cells were negative for Mycoplasma infection.
For transport experiments, Caco-2 cells were plated at a density of 88,500 cells/insert on Costar® Transwell membrane inserts (3 μm pore diameter, 12 mm diameter; commercially available from Corning Inc., New York). Confluence was reached within 3-4 days after seeding and the monolayers were used for the experiments 18-19 days post-seeding. Cell passages between 50 and 85 were used in the experiments. Transepithelial Electrical Resistance (hereinafter referred as TEER) values were measured with an EndOhm Voltohmmeter (commercially available from WPI, Aston, England). Only monolayers with initial TEER values higher than 200 Ω·cm^2 were used. All volumes amounted to 0.5 mL at the apical side of the monolayer and 1.5 mL at the basolateral side. After rinsing the monolayers 3 times with TM, a pre-incubation step (30 minutes) with TM (control) was performed.
[…] The samples were diluted with methanol (1:1 volume ratio) and itraconazole concentration was determined by HPLC. TEER values were measured again at the end of the experiment and were higher than 95% of the initial value.
For orientation: Caco-2 cells form a polarised layer with tight junctions and transporters.

The nature of data set [6]: Oral pharmacokinetics in dogs. Conditions: for systemic exposure after oral dosing (HPLC-UV): dogs, oral 20 mg, 4 dogs. As to the method:
Details of the dog's experiments were as follows: Marshall Beagle dogs (1.5-3 years of age, 7.1-10.0 kg, male) were housed according to Belgian laws and European regulations for animal experiments, and with free access to water and food. The comparative bioavailability study was performed according to a cross-over design (n=5). After administration of the capsules, 10 mL of water was given to facilitate swallowing. The evaluation of the formulation containing pure crystalline itraconazole was performed with 4 dogs. Blood samples (2.5 mL) were collected from the vena jugularis before dosing and at 0.25, 0.5, 1, 2, 3, 4, 6, 8 hours respectively after dosing. Immediately after blood collection, plasma was harvested by centrifugation at 2,500 g for 10 minutes. Plasma was then transferred to a fresh tube and frozen at −20° C. prior to analysis.
The mobile phase consisted of a methanol/25 mM sodium acetate mixture (78/22 by volume) at pH 3.3.
The maximal plasma concentrations (Cmax) and the time (Tmax) required to reach Cmax were determined from the individual time versus concentration profiles. Systemic exposure was determined by calculating AUC0-24h (rabbits) and AUC0-8h (dogs) using the linear trapezoidal rule. Pharmacokinetic parameters between the three formulations tested were statistically compared with the non-parametric Wilcoxon signed-rank test. The level of significance was set at p<0.03 for comparing two out of three groups.

A short description of data set [7]: Oral pharmacokinetics in rabbits. Format: in vivo, New Zealand White rabbits. Conditions: for Tmax: oral. As to the method:
Prior to oral drug administration, the rabbits (n=5) were fasted overnight (>12 hours). After receiving the oral dose, 3 mL of water was administered to facilitate swallowing. After 4 hours, the rabbits had free access to food and water. A wash out period of seven days was allowed between subsequent dose administrations. […] Plasma was then transferred to a fresh Eppendorf tube and frozen at −20° C. prior to analysis.

In brackets after ≈: the same amount, converted by molar mass. Where two headings read alike, the source gives them in different places.

With `CS(=O)(=O)c1ccc([C@@H](O)[C@@H](CF)NC(=O)C(Cl)Cl)cc1` [florfenicol, D-(threo)-1-p-methylsulfonyl phenyl-2-dichloroacetamido-3-fluoro-1-propanol], the water-solubility in data set [1] was 1300 µg/mL; in data set [1] (listed as Florfenicol), “about 1.3 mg/mL”. Also, the oral bioavailability entry in data set [2] is given as “good oral bioavailability”.

The solubility (thermodynamic) is the concentration in solution at equilibrium with solid. What is called Tmax is the time from dosing to the highest level. As for `CCC(C)n1ncn(-c2ccc(N3CCN(c4ccc(OCC5COC(Cn6cncn6)(c6ccc(Cl)cc6Cl)O5)cc4)CC3)cc2)c1=O` (centres unmarked) [itraconazole], the solubility (thermodynamic) in data set [3] came out at 0.4 µM (≈ 0.282 µg/mL). The “Total transport after 60 minutes” value in data set [4] is 0.03 nmol/cm; in data set [4] (75 μM), 0.50 nmol/cm. Besides, the entries for the “total transport of itraconazole after 90 minutes” value in data set [5] (donor: 10 μM supersaturated condition in FaSSIF (solvent shift)), in data set [5] (donor: 75 μM supersaturated condition in FaSSIF (solvent shift)) and in data set [5] (donor: saturated itraconazole solution in FaSSIF) were 1.2 µg, 2.2 µg and 0.09 µg, respectively. For the same compound, the “systemic exposure after oral dosing (HPLC-UV)” value in data set [6] (listed as crystalline itraconazole) was “no systemic itraconazole could be detected”; in data set [6] (listed as pure crystalline itraconazole) it was “no systemic concentrations of itraconazole and its main metabolite hydroxy-itraconazole could be observed”. Further, the AUC0-8 h itraconazole in data set [6] (male, Marshall Beagle, dog, in vivo, po, 20 mg) turned out to be 0 ± 0 µM·h. The time of peak concentration (Tmax) in data set [7] (female, New Zealand White, rabbit, plasma, 8 mg) amounted to 9.8 h; in data set [7] (female, New Zealand White, rabbit, plasma, 8.4 mg), 10 h. Besides, the AUC(0-t) in data set [7] (female, New Zealand White, rabbit, plasma, po, 8 mg, single oral capsule dose about 8 mg, n=5, read-out: AUC0-24 h itraconazole) is 0.521 µM·h. In data set [7] (single oral capsule dose about 8 mg, n=5, listed as crystalline itraconazole), this compound returned an AUC0-24 h itraconazole of 0.52 µM·h.

With `CC(C)(C)c1ccc(C(O)CCCN2CCC(C(O)(c3ccccc3)c3ccccc3)CC2)cc1` (centres unmarked) [terfenadine], the water-solubility entry in data set [1] is recorded as “less than 0.01 mg/mL”.

(Values after patent publication US8258137B2, “Process for release of biologically active species from mesoporous oxide systems” (Katholieke Universiteit Leuven, priority 2008, dated 2012).)
